According to PMC12195956 (Molecules, 2025):
In brackets after ≈: the same amount, converted by molar mass. Like-named read-outs stand apart in the source and are kept apart here.

Tests used:
[1] = Solubility screening of anthralin in oils, surfactants and co-surfactants; format: physicochemical; conditions: read-out: drug solubility
Protocol: Excess drug was dissolved in 1 mL of the aforementioned oils, surfactant, and co-surfactant, and vortexed continuously for 48 h. The samples were centrifuged at 5000–7000 rpm for 15 min after which they were left to rest for 72 h.

[2] = tested on: L929 (Mouse Connective Cell Line); test: MTT assay (antipsoriatic activity); format: cell-based
Protocol: The L929 mouse connective tissue cell line was received from the National Center for Cell Sciences (NCCS), Pune, India and grown in DMEM media containing 10% fetal bovine serum. The cells were kept at 37 °C in a 5% CO2 incubator and seeded at a density of 1 × 10⁴ cells/mL in culture media for 24 h. To conduct the experiment, 70 μL of cell suspension (1 × 10^4 cells/well) were added to 100 μL of culture media on a 96-well tissue culture plate. Sample was added to wells at varying doses (25, 50, and 100 μg/mL), while control wells contained 0.2% DMSO in PBS with cell culture. All experiments were performed in triplicate to ensure reliability and reproducibility of the results. Control wells were utilized to evaluate cell viability and calculate the percentage of cells that survived after incubation. The cultures were incubated at 37 °C with 5% CO2 for 24 h in a CO2 incubator (Thermo Scientific BB150, Thermo Fisher Scientific Inc., Waltham, MA, USA). After incubation, the media were removed and 20 μL of MTT reagent (5 mg/mL in PBS) was added. The plates were incubated for a further 4 h at 37 °C to allow live cells to convert the MTT into formazan crystals, which were then viewed under a microscope. After removing the medium, 200 μL of DMSO was added and incubated at 37 °C for 10 min while protected from light with aluminum foil. Each sample’s absorbance was measured at 570 nm using an ELISA microplate reader (Benesphera E21, Avantor Performance Materials India Private Limited, Gurgoan, India), with triplicates tested for accuracy.

[3] = pKa and percentage ionization (Henderson–Hasselbalch equation); format: physicochemical
Description: One study reported an average pH of 5.2 in psoriatic skin, compared to 5.6 in healthy skin [36]. […] The optimal pH range for topical application is 6–7 to balance efficacy and skin irritation.

[4] = previously reported value ref 37; cited from earlier work
Propionibacterium = test: Antibacterial activity, zone of inhibition; format: cell-based; conditions: 24 h incubation
Protocol: Nutrient Agar (NA-Himedia, HiMedia Laboratories Pvt. Ltd., Mumbai, India) was prepared by dissolving 28.0 g in 1000 mL distilled water, sterilized at 121 °C for 15 min, and poured into sterile Petri plates. Propionibacterium was used for microbial assays. A 24 h pure culture was prepared by suspending the microorganisms in saline solution, streaking onto culture slants, and incubating at 37 °C. Standard solutions, including Clindamycin (25 mg/mL), were prepared in sterile water and stored under refrigeration. Plates were prepared using the pour plate method by pouring melted agar into sterile plates and allowing its solidification before use.
A sterile, non-toxic cotton swab was dipped in the standardized inoculums (turbidity was adjusted to achieve confluent growth on the Petri plate), and the entire plate’s agar surface was streaked with the swab three times, turning the plate at a 60-degree angle between streaking. The streaked inoculums were then allowed to dry for 5–15 min with the lid on. Then, using sterile well punches, a bore was punched on the prepared plates (8 mm). With the assistance of a sterile micropipette, a 10 μL dosage of produced microemulsion and standard medication Clindamycin were injected into each bore in an aseptic environment. Plates were maintained at room temperature for 30 min before being incubated for 24 h at 37 °C. The diameter of the inhibitory zones was measured using a scale in mm.
The antibacterial potential of test compounds was assessed using the mean diameter of the zone of inhibition around the disc in millimeters. The zones of inhibition of the studied microorganisms by the substances were determined on a millimeter scale.

O=C1c2c(O)cccc2Cc2cccc(O)c21 [Anthralin]
solubility at 48 h ([1]; PEG 400, 27 °C, organic solvent or mixture, thermodynamic from solid, in PEG 400, room temperature (27 ± 1 °C)): 14.1 mg/mL (≈ 62.2 mM) | solubility at 48 h ([1]; Span 20, thermodynamic from solid, in Span 20): 4.23 mg/mL (≈ 18.7 mM) | solubility at 48 h ([1]; Transcutol-P, organic solvent or mixture, thermodynamic from solid, in Transcutol-P): 15.6 mg/mL (≈ 68.8 mM) | solubility at 48 h ([1]; Tween 20, thermodynamic from solid, in Tween 20): 11.6 mg/mL (≈ 51.2 mM) | solubility at 48 h ([1]; Tween 80, 27 °C, thermodynamic from solid, in Tween 80, room temperature (27 ± 1 °C)): 56 mg/mL (≈ 248 mM) | solubility at 48 h ([1]; castor oil, oil or lipid, thermodynamic from solid, in castor oil): 23.9 mg/mL (≈ 106 mM) | solubility at 48 h ([1]; ethanol, organic solvent or mixture, thermodynamic from solid, in ethanol): 9.23 mg/mL (≈ 40.8 mM) | solubility at 48 h ([1]; oleic acid, 27 °C, oil or lipid, thermodynamic from solid, in oleic acid, room temperature (27 ± 1 °C)): 44.2 mg/mL (≈ 196 mM) | solubility at 48 h ([1]; olive oil, oil or lipid, thermodynamic from solid, in olive oil): 28.2 mg/mL (≈ 125 mM) | Inhibition % ([2]; L929, 100 µg/mL, 24 h): 60.345% | inhibition at 25 µg/mL ([2]; Mus musculus, L929, 24 h, L929, 25 µg/mL, 24 h): 47.9% | inhibition at 50 µg/mL ([2]; Mus musculus, L929, 24 h, L929, 50 µg/mL, 24 h): 53% | inhibition at 100 µg/mL ([2]; Mus musculus, L929, 24 h, L929, 100 µg/mL, 24 h): 60.3% | viability at 25 µg/mL ([2]; Mus musculus, L929, 25 µg/mL, 24 h): 52.1% | viability at 50 µg/mL ([2]; Mus musculus, L929, 50 µg/mL, 24 h): 47% | viability at 100 µg/mL ([2]; Mus musculus, L929, 100 µg/mL, 24 h): 39.7% | IC50 ([2]; Mus musculus, L929, from linear regression of % inhibition vs. concentration): 36.2 µg/mL (≈ 0.16 mM) | percentage ionization ([3]; pH 5.2 (psoriatic skin)): 0.01% | percentage ionization ([3]; pH 5.6 (healthy skin)): 0.03% | pKa [4]: 9.06

O=c1[nH]cc(F)c(=O)[nH]1 [Batch 5-FU, 5-flurouracil]
Cell Viability % ([2]; L929, 25 µg/mL, 24 h): 33.90% | Inhibition % ([2]; L929, 25 µg/mL, 24 h): 66.10% | Cell Viability % ([2]; L929, 50 µg/mL, 24 h): 29.87% | Inhibition % ([2]; L929, 50 µg/mL, 24 h): 70.13% | Cell Viability % ([2]; L929, 100 µg/mL, 24 h): 21.00% | Inhibition % ([2]; L929, 100 µg/mL, 24 h): 79.00%

CCC[C@@H]1C[C@@H](C(=O)N[C@@H]([C@H]2O[C@H](SC)[C@H](O)[C@@H](O)[C@H]2O)[C@H](C)Cl)N(C)C1 [Clindamycin]
zone of inhibition at 25 µg/mL (Propionibacterium; 25 μg/mL): 11.3 ± 1.15 mm | zone of inhibition at 50 µg/mL (Propionibacterium; 50 μg/mL): 13.7 ± 1.15 mm | zone of inhibition at 100 µg/mL (Propionibacterium; 100 μg/mL): 20.7 ± 1.15 mm
